pEC50: −log10 of the molar value. In brackets after ≈: the same amount, converted by molar mass. Several values for one entry are separate records, joined by “and”; a condition that tells them apart may be missing. Equal values may be shown once. Read-outs that look alike come from different tables or passages of the source.
What was measured:
[1] = Cytotoxicity, ATPlite cell viability; format: cell-based; settings: human, mean value, HepG2 or HepG2.117 cells
Experimental: Cytotoxicity of the compounds was tested using HepG2 or HepG2.117 cells, incubated for 4 days in the presence of compounds. The viability of the cells was assessed using the Perkin Elmer ATPlite Luminescence Assay System.”

HT EQ solubility assay = format: physicochemical; settings: read-out: HtEq Sol; for solubility thermodynamic at 24 h: stirred 24 h
Experimental: The assay was run in triplicate and was semi-automated using the Tecan Fluent for all liquid handling. 20 μL of 10 mM stock solution was dispensed in a 500 μL 96 well plate. DMSO was evaporated (Genevac). A stir bar and 400 μL of buffer/biorelevant media was added. The solution was stirred for 72 h (pH2 and pH7) or 24 h (FaSSIF and FeSSIF). The solution was filtered and the filtrate was quantified by UPLC/UV using a three-points calibration curve.

HBV = assay: anti HBV activity, HepG2.117 cell line, intracellular HBV DNA by real-time PCR; format: cell-based, hepatitis B virus; settings: Hepatitis B virus, 72 h; mean value; HepG2.117 cells, 3 days of treatment, intracellular HBV DNA; read-out: HBV-AVE-HepG2.117_intra_EC50
Experimental: The anti HBV activity was measured using the HepG2.117 cell line, a stable, inducible HBV producing cell line, which replicates HBV in the absence of doxicycline (Tet-off system). The HepG2 cell line is available from ATCC® under number HB-8065. Transfection of the HepG2 cell line can be as described in Sun and Nassal 2006 Journal of Hepatology 45 (2006) 636-645 “Stable HepG2-and Huh7-based human hepatoma cell lines for efficient regulated expression of infectious hepatitis B virus”.
For the antiviral assay, HBV replication was induced, followed by a treatment with serially diluted compound in 96-well plates. After 3 days of treatment, the antiviral activity was determined by quantification of intracellular HBV DNA using real-time PCR and an HBV specific primer set and probe.

[2] = Pharmacokinetics assessment in mice; format: in vivo, C57BL mice; settings: mouse; for clearance / AUC(0-t) / Cmax: male, C57BL, plasma; for clearance: IV (PEG400) 2.5 mg/kg
Experimental: The pharmacokinetic profile was evaluated in fed male C57BL mice (n=3/group). Mice were i.v. injected with test compound at 2.5 mg/kg, formulated as solution in PEG400/water (70/30), and blood samples were collected from the dorsal metatarsal vein at 0.05, 0.117, 0.333, 1, 2, 4, 7, and 24 hours into EDTA-containing microcentrifuge tubes. Test compound was administered p.o. at 10 mg/kg and 50 mg/kg, formulated as solution in PEG400, and blood samples were collected from the dorsal metatarsal vein at 0.5, 1, 2, 4, 7, 12 and 24 hours into EDTA-containing microcentrifuge tubes. The blood samples were immediately centrifuged at 4° C. and the plasma was stored at −80° C. Compound concentrations from the plasma samples were analyzed using LC-MS/MS (LCMS-8050 instrument). Individual plasma concentration-time profiles were subjected to a non-compartmental pharmacokinetic analysis (NCA) using Phoenix™ WinNonlin version 6.1. (Certara, N.J., USA).

[3] = Thermodynamic solubility assay; format: physicochemical; settings: organic solvent or mixture, thermodynamic from solid; thermodynamic solubility in PEG400
Experimental: To x mg of compound 500 μL of solvent was added (max. conc. y mg/mL). After 24 h/72 h shaking/stirring the solutions were filtered (0.45 μm membrane) and the pH was recorded. The filtrate was diluted to a maximum conc. of 100 μg/mL (CH3CN/0.1N HCl 1/1) and the samples were quantified by LC/UV. Calibration standards were 100 μg/mL, 10 μg/mL and 1 μg/mL.

[4] = buffer pH 2, aqueous buffer, thermodynamic from solid, pH = 2, stirred 72 h
[5] = buffer pH 7, aqueous buffer, thermodynamic from solid, pH = 7, stirred 72 h
[6] = thermodynamic from solid, Fessif
[7] = thermodynamic from solid, fassif

| SMILES | CC50 at 4 days [1] [µM] | pEC50 (HBV) | other results |
| --- | --- | --- | --- |
| Cc1c(C(=O)C(=O)NC2(c3cn[nH]n3)CC(F)(F)C2)cn(C)c1C(=O)Nc1ccc(F)c(C#N)c1 [Compound 12] | > 50 | 8.00 | solubility thermodynamic at 24 h (HT EQ solubility assay; Fessif): 41.2 µM and 25.1 µM; solubility thermodynamic at 24 h (HT EQ solubility assay; fassif): 10.2 µM and 5.4 µM |
| Cc1c(C(=O)C(=O)NC2(c3cn[nH]n3)CC(F)(F)C2)cn(C)c1C(=O)Nc1ccc(F)c(Cl)c1 [Compound 13] | 26.8 | 8.52 | clearance [2]: 10.2 mL/min/kg; AUC(0-t) ([2]; PO (PEG400) 10 mg/kg): 12500 ng·h/mL; Cmax ([2]; PO (PEG400) 10 mg/kg): 2480 ng/mL; F ([2]; PO (PEG400) 10 mg/kg): 77.3 +/− 19.8%; F ([2]; PO (PEG400) 50 mg/kg): 121 +/− 50%; solubility [3]: > 36.4 mg/mL; solubility thermodynamic at 72 h (HT EQ solubility assay; [4]): 1.1 µM (≈ 0.544 µg/mL); solubility thermodynamic at 72 h (HT EQ solubility assay; [5]): < 0.6 µM; solubility thermodynamic at 24 h (HT EQ solubility assay; [6]): 150 µM (≈ 74.5 µg/mL); solubility thermodynamic at 24 h (HT EQ solubility assay; [7]): 39.8 µM (≈ 19.7 µg/mL) |
| Cc1c(C(=O)C(=O)NC2(c3c[nH]nn3)CC(F)(F)C2)c(C)n(C)c1C(=O)Nc1ccc(F)c(C#N)c1 [Compound 28] | > 50 | 8.10 | clearance [2]: 73.3 mL/min/kg; AUC(0-t) ([2]; PO (PEG400) 10 mg/kg): 153 ng·h/mL; Cmax ([2]; PO (PEG400) 10 mg/kg): 85 ng/mL; AUC(0-t) ([2]; PO (PEG400) 50 mg/kg): 1850 ng·h/mL; Cmax ([2]; PO (PEG400) 50 mg/kg): 1630 ng/mL; F ([2]; PO (PEG400) 10 mg/kg): 6.05 +/− 3.56%; F ([2]; PO (PEG400) 50 mg/kg): 14.6 +/− 12^ %; solubility [3]: > 33.9 mg/mL; solubility thermodynamic at 72 h (HT EQ solubility assay; [4]): < 5 µM; solubility thermodynamic at 72 h (HT EQ solubility assay; [5]): < 5 µM; solubility thermodynamic at 24 h (HT EQ solubility assay; [6]): 277 µM (≈ 138 µg/mL); solubility thermodynamic at 24 h (HT EQ solubility assay; [7]): 46.8 µM (≈ 23.4 µg/mL) |
| Cc1c(C(=O)C(=O)NC2(c3cn[nH]n3)CC(F)(F)C2)c(Cl)n(C)c1C(=O)Nc1ccc(F)c(Br)c1 [Compound 40] | 6.6 | 8.40 | – |
| Cc1c(C(=O)C(=O)NC2(c3cn[nH]n3)CC(F)(F)C2)c(Br)n(C)c1C(=O)Nc1ccc(F)c(Cl)c1 [Compound 41] | 7.2 | 8.70 | – |
| Cc1c(C(=O)C(=O)NC2(c3cn[nH]n3)CC(F)(F)C2)c(F)c(C(=O)Nc2ccc(F)c(C#N)c2)n1C [Compound 42] | > 50 | 8.70 | – |
| Cn1cc(C(=O)C(=O)NC2(c3ncc[nH]3)CC(F)(F)C2)cc1C(=O)Nc1ccc(F)c(C#N)c1 [Compound 43] | 6.6 | 6.50 | – |
| Cc1c(C(=O)C(=O)NC(CC(F)(F)F)c2cn[nH]n2)c(C)n(C)c1C(=O)Nc1ccc(F)c(C#N)c1 (centres unmarked) [Compound 44RS] | > 50 | 8.40 | – |
| Cc1c(C(=O)C(=O)NC2(c3cn[nH]n3)CC(F)(F)C2)cc(C(=O)Nc2ccc(F)c(C#N)c2)n1C [Compound 45] | > 50 | 8.05 | – |
| Cc1c(C(=O)C(=O)NC2(c3cn[nH]n3)CC(F)(F)C2)cn(C)c1C(=O)Nc1ccc(F)c(C#N)c1F [Compound 46] | > 50 | 7.96 | – |
| Cn1c(C#N)c(C(=O)C(=O)NC2(c3cn[nH]n3)CC(F)(F)C2)c(F)c1C(=O)Nc1ccc(F)c(C#N)c1 [Compound 50] | > 50 | 5.89 | – |
| Cc1c(C(=O)C(=O)NC(C)(c2cn[nH]n2)C(F)(F)F)cn(C)c1C(=O)Nc1ccc(F)c(C#N)c1 (centres unmarked) [Compound 51] | > 50 | 7.89 | – |
| Cn1c(C(=O)Nc2ccc(F)c(C#N)c2)c(F)c(C(=O)C(=O)NC2(c3cn[nH]n3)CC(F)(F)C2)c1C1CC1 [Compound 52] | > 40.6 | 8.05 | – |
| Cc1c(C(=O)C(=O)NC2(c3cn[nH]n3)CC(F)(F)C2)cn(C)c1C(=O)Nc1ccnc(C(F)F)c1 [Compound 53] | > 50 | 7.48 | – |
| Cc1c(C(=O)C(=O)NC2(c3cn[nH]n3)CC(F)(F)C2)c(C2CC2)n(C)c1C(=O)Nc1ccc(F)c(Cl)c1 [Compound 54] | 26.3 | 8.52 | – |
| Cc1c(C(=O)C(=O)NC2(c3cn[nH]n3)CC(F)(F)C2)c(C#N)n(C)c1C(=O)Nc1ccc(F)c(Cl)c1 [Compound 55] | > 50 | 6.09 | – |
| Cn1cc(C(=O)C(=O)NC2(c3c[nH]cn3)CC(F)(F)C2)cc1C(=O)Nc1ccc(F)c(C#N)c1 [Compound 56] | 20 | 7.36 | – |
| Cc1c(C(=O)C(=O)N[C@]2(c3cn[nH]n3)C[C@H](F)C2)cn(C)c1C(=O)Nc1ccc(F)c(C#N)c1 [Compound 57cis] | > 50 | 7.92 | – |
| Cc1c(C(=O)C(=O)N[C@]2(c3cn[nH]n3)C[C@@H](F)C2)cn(C)c1C(=O)Nc1ccc(F)c(C#N)c1 [Compound 57trans] | > 50 | 8.15 | – |
| Cc1c(C(=O)C(=O)N[C@]2(c3cn[nH]n3)C[C@H](O)C2)cn(C)c1C(=O)Nc1ccc(F)c(C#N)c1 [Compound 58cis] | > 50 | 7.05 | – |
| Cc1c(C(=O)C(=O)N[C@]2(c3cn[nH]n3)C[C@@H](O)C2)cn(C)c1C(=O)Nc1ccc(F)c(C#N)c1 [Compound 58trans] | > 50 | 7.06 | – |
| Cc1cc(NC(=O)c2cc(C(=O)C(=O)NCc3cn[nH]n3)cn2C)ccc1F [Ref. 59, reference compound] | > 50 | 6.23 | – |

Source: patent US11096931B2, “Amide derivatives useful in the treatment of HBV infection or HBV-induced diseases” (Janssen Sciences Ireland Unlimited Company, priority 2019, dated 2021)
